Holding throughout (test): growth of human tumour cells (NCI), 48 h
The test system of experiment [1] is SR.
In experiment [2] the test system is OVCAR-5.
The test system of experiment [3] is Hs-578T.
Experiment [4] deals with DU-145.
Experiment [5] deals with SN12C.
The test system of experiment [6] is K562.
Experiment [7] relates to SK-OV-3.
The test system of experiment [8] is SF-268.
Experiment [9] concerns MDA-MB-231.
Experiment [10] has as its system SK-MEL-2.
Experiment [11] deals with KM12.
The subject of experiment [12] is OVCAR-8.
The subject of experiment [13] is OVCAR-3.
For experiment [14], the system named is HOP-92.
The test system of experiment [15] is MOLT-4.
Experiment [16] concerns HL-60.
The subject of experiment [17] is SNB-19.
Experiment [18] concerns A498.
The subject of experiment [19] is NCI-H460.

Molecules are shown by their SMILES.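 Cultured in 96-well plates, cells were exposed to test compound for 48 hours across five concentrations. GI50 is the concentration that inhibits growth by half.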 The source made the active and inactive calls. No stated cut-off is given here; in the data, active = GI50 up to about 1.1 µM and inactive = higher.

Take `N#Cc1c(NC(=O)C(F)(F)F)sc2c3c(=O)c4ccccc4c(=O)c=3oc3ccccc3c12`: the GI50 in experiment [1] is 3.28 µM (inactive); in experiment [2], 30.7 µM (inactive); in [3], 2.49 µM (inactive); in experiment [4], 15.3 µM (inactive); in experiment [5], 21.9 µM (inactive); in experiment [6], 19.8 µM (inactive). For the same compound, the GI50 in [7] is 29.4 µM (inactive); in [8] it was 7.98 µM (inactive); in experiment [9], 24.3 µM (inactive); in experiment [10] it was 15 µM (inactive); in experiment [11], 9.84 µM (inactive); in [12], 15.7 µM (inactive). Moreover, the GI50 is 10.8 µM (inactive) in experiment [13]; 19.7 µM (inactive) in experiment [14]; 11.7 µM (inactive) in experiment [15]; 4.46 µM (inactive) in experiment [16]; 20.3 µM (inactive) in experiment [17]; 33.3 µM (inactive) in experiment [18]. For the same compound, the GI50 in experiment [19] was 17.6 µM (inactive).
Turning to `CC(=O)N1NC(c2ccccc2)=CC(=O)/C1=C/C(=O)c1ccccc1`, the GI50 in experiment [1] is 20.7 µM (inactive); in experiment [2], > 100 µM (inactive); in experiment [3], 39.9 µM (inactive); in experiment [4], > 100 µM (inactive); in experiment [5] it was 82.8 µM (inactive); in [6], 56 µM (inactive). In addition, the GI50 in experiment [7] is > 100 µM (inactive); in experiment [8] it was 29.2 µM (inactive); in [9], > 100 µM (inactive); in experiment [10], > 100 µM (inactive); in [11], 75.5 µM (inactive); in experiment [12], > 100 µM (inactive). Moreover, the GI50 was 28.6 µM (inactive) in experiment [13]; 34.5 µM (inactive) in [14]; 52.5 µM (inactive) in experiment [15]; 35.2 µM (inactive) in experiment [16]; 58.7 µM (inactive) in [17]; > 100 µM (inactive) in [18]. The GI50 in experiment [19] was 71.1 µM (inactive).
With `COC(=O)C1=C(OC(=O)/C(=C/c2ccccc2)c2ccc(Cl)cc2Cl)C(C(=O)OC)[C@@]2(O)[C@@H](C(=O)OC)[C@H](C)C[C@@H]1[C@@H]2C(=O)OC` (stereo not given in full), the GI50 in experiment [1], in experiment [2], in experiment [3], in experiment [4], in [5] and in experiment [6] was > 100 µM (inactive) in each case. Also, the GI50 in experiment [7], in experiment [8], in experiment [9], in [10], in [11] and in experiment [12] was > 100 µM (inactive) each time. Moreover, the GI50 in [13], in [14], in [15], in experiment [16], in [17] and in [18] was > 100 µM (inactive) each time. Also, the GI50 in experiment [19] was > 100 µM (inactive).
For the compound `N=C(/C=C/c1ccc(-c2cn3cc(/C=C/C(=N)N4CCCC4)ccc3n2)cc1)N1CCCC1`, the GI50 is > 100 µM (inactive) in experiment [1]; > 100 µM (inactive) in experiment [2]; 56.5 µM (inactive) in experiment [3]; 50 µM (inactive) in experiment [4]; > 100 µM (inactive) in experiment [5]; > 100 µM (inactive) in experiment [6]. The GI50 in experiment [7] was > 100 µM (inactive); in [8], > 100 µM (inactive); in experiment [9], > 100 µM (inactive); in [10], > 100 µM (inactive); in [11], 60.3 µM (inactive); in experiment [12], 79.1 µM (inactive). The GI50 was 60.1 µM (inactive) in [13]; > 100 µM (inactive) in experiment [14]; > 100 µM (inactive) in [15]; > 100 µM (inactive) in experiment [16]; > 100 µM (inactive) in [17]; > 100 µM (inactive) in experiment [18]. Also, in [19], the GI50 was 81.3 µM (inactive).
On to `CCOC(=O)C1C(=O)CC(O)(c2ccccc2)C(C(=O)OCC)C1c1ccc(OC)cc1` (stereo not given), for which the GI50 in experiment [1] was 4.23 µM (inactive); in [2], 50.6 µM (inactive); in [3], 0.695 µM (active); in [4], 47.3 µM (inactive); in experiment [5], 40.7 µM (inactive); in experiment [6] it was 5.27 µM (inactive). Also, the GI50 in experiment [7] is 15.8 µM (inactive); in experiment [8], 30.1 µM (inactive); in [9], 22.2 µM (inactive); in experiment [10], 20.1 µM (inactive); in experiment [11], 6.31 µM (inactive); in experiment [12], 33.4 µM (inactive). Moreover, the GI50 in experiment [13] is 12.4 µM (inactive); in experiment [14], 15.3 µM (inactive); in [15], 17.5 µM (inactive); in [16] it was 10.5 µM (inactive); in [17] it was 22.5 µM (inactive); in [18], 42.2 µM (inactive). Further, in [19], the GI50 is 18.2 µM (inactive).
Consider `CC(C)(C)OC(=O)CN1CCN(CC(=O)N2CCN(C(=O)OCc3ccccc3)CC2)CCN(CC(=O)OC(C)(C)C)CCN(CC(=O)N2CCN(C(=O)OCc3ccccc3)CC2)CC1`, for which the GI50 is 0.407 µM (active) in experiment [1]; 13.1 µM (inactive) in experiment [2]; 1.79 µM (inactive) in [3]; 6.95 µM (inactive) in [4]; 2.76 µM (inactive) in experiment [5]; 0.989 µM (active) in experiment [6]. Also, the GI50 in experiment [7] was 3.47 µM (inactive); in experiment [8] it was 2.48 µM (inactive); in experiment [9], 1.64 µM (inactive); in experiment [10], 1.82 µM (inactive); in [11], 1.42 µM (inactive); in experiment [12], 2.83 µM (inactive). Also, the GI50 in [13] is 2.83 µM (inactive); in experiment [14], 2.6 µM (inactive); in experiment [15], 1.98 µM (inactive); in experiment [16], 0.225 µM (active); in experiment [17] it was 3.48 µM (inactive); in experiment [18], 15.4 µM (inactive). In addition, the GI50 in [19] is 1.35 µM (inactive).
Turning to `O=[N+]([O-])c1ccc(C(O)(C#CCN2CCCC2)c2ccccc2)cc1` (stereo not given), the GI50 in [1] is 23.7 µM (inactive); in experiment [2], 57.9 µM (inactive); in experiment [3], 28.9 µM (inactive); in experiment [4] it was > 100 µM (inactive); in experiment [5], 38.3 µM (inactive); in experiment [6], 19.7 µM (inactive). For the same compound, the GI50 is 80.7 µM (inactive) in experiment [7]; 27 µM (inactive) in experiment [8]; 43 µM (inactive) in [9]; 24.5 µM (inactive) in experiment [10]; 41.8 µM (inactive) in [11]; 36.6 µM (inactive) in experiment [12]. Besides, the GI50 in experiment [13] is 49 µM (inactive); in experiment [14] it was 10.2 µM (inactive); in experiment [15], 25.8 µM (inactive); in experiment [16], 18.4 µM (inactive); in experiment [17], 98.2 µM (inactive); in experiment [18], 23.3 µM (inactive). For the same compound, in experiment [19], the GI50 is 56.2 µM (inactive).
Turning to `O=C1c2c(O)ccc(O)c2C(=O)c2c(NCCNC(=O)C(O)C(O)C(O)C(O)CO)ccc(NCCNC(=O)C(O)C(O)C(O)C(O)CO)c21` (stereo not given), the GI50 in experiment [1] is < 0.01 µM (active); in [2] it was 0.192 µM (active); in experiment [3], 0.213 µM (active); in [4], < 0.01 µM (active); in experiment [5], < 0.01 µM (active); in experiment [6], 0.0104 µM (active). Further, the GI50 in experiment [7] was < 0.0233 µM (active); in [8] it was 0.0241 µM (active); in experiment [9], 0.0467 µM (active); in [10] it was 1.08 µM (active); in experiment [11], 0.0277 µM (active); in experiment [12], < 0.0231 µM (active). The GI50 in experiment [13] was 0.279 µM (active); in experiment [14], < 0.01 µM (active); in [15], < 0.01 µM (active); in experiment [16], < 0.01 µM (active); in [17], < 0.01 µM (active); in experiment [18], 0.149 µM (active). Besides, in [19], the GI50 is < 0.01 µM (active).
Turning to `O=C1Nc2ccccc2/C1=C1/Nc2ccccc2/C1=N/OCCOCCO`, the GI50 in experiment [1] is 1.68 µM (inactive); in experiment [2], 4.62 µM (inactive); in experiment [3], 0.592 µM (active); in experiment [4] it was 1.39 µM (inactive); in experiment [5], 2.69 µM (inactive); in [6], 5 µM (inactive). In addition, the GI50 was 0.361 µM (active) in experiment [7]; 3.19 µM (inactive) in experiment [8]; 5.93 µM (inactive) in [9]; 0.644 µM (active) in [10]; 0.0423 µM (active) in experiment [11]; 3.91 µM (inactive) in experiment [12]. The GI50 in experiment [13] is 2.06 µM (inactive); in experiment [14], 13.8 µM (inactive); in experiment [15], 2.96 µM (inactive); in [16], 2.11 µM (inactive); in experiment [17] it was 6.52 µM (inactive); in [18], 0.259 µM (active). Further, the GI50 in [19] was 1.21 µM (inactive).
`COC(=O)[C@@H]1CN(C(=O)CCc2ccccc2)C(=O)N1C(=O)OCc1ccccc1`: the GI50 in experiment [1] was > 100 µM (inactive); in experiment [2] it was > 100 µM (inactive); in [3], 57.1 µM (inactive); in [4] it was > 100 µM (inactive); in experiment [5], > 100 µM (inactive); in experiment [6] it was > 100 µM (inactive). Besides, the GI50 in experiment [7] was > 100 µM (inactive); in experiment [8] it was 40 µM (inactive); in [9], > 100 µM (inactive); in experiment [10] it was > 100 µM (inactive); in [11] it was > 100 µM (inactive); in experiment [12], > 100 µM (inactive). Besides, the GI50 in experiment [13], in experiment [14], in [15], in experiment [16], in experiment [17] and in experiment [18] was > 100 µM (inactive) in each case. Besides, the GI50 in [19] is 59.4 µM (inactive).

Values taken from ChEMBL document CHEMBL1201862, “PubChem BioAssay data set” (2004).
